Experimental data as given in publication PMC10888192, “New Derivatives of 1-(3-Methyl-1-Benzofuran-2-yl)Ethan-1-one: Synthesis and Preliminary Studies of Biological Activity” (International Journal of Molecular Sciences, 2024).

Tests used:
[1] = system: HaCaT cells (human immortal keratinocytes); assay: MTT cytotoxicity assay, HaCaT; assay type: cell-based; settings: 72 h incubation, mean ± SD
Description: (§1) The cell viability was analyzed at the following six concentrations of compounds: 5, 10, 20, 40, 60 and 100 µM after 72 h incubation.
(§2) Additionally, to determine the safety profile of the tested compounds, the therapeutic index (TI) (the ratio of IC50 value in HaCaT to cancer cells K562) was calculated. […] The goal of conducting the MTT assay in this research was to select benzofuran derivatives, which manage to reduce viability of cancer cells while exposing mild effects on normal healthy cells.
(§3) The cytotoxicity was evaluated by MTT reduction assay, which measures mitochondrial respiratory function. The test was performed based on the method described by Präbst et al.. Cells (1 × 10^4/well), in logarithmic phase, were seeded into 96-well plates in appropriate medium. After 24 h, cells were exposed to test compounds. […] After 72 h, the medium with the compounds was completely removed and MTT solution (0.5 mg/mL) in fresh medium without serum was added to each well. Plates with cells were incubated for 4 h at 37 °C in the dark. Then, MTT solution was removed and replenished with 0.1 mL DMSO: isopropanol (1:1) mixture to dissolve the generated formazan crystals. The optical density was measured with a […] GO (ThermoScientific) microplate reader at 570 nm. Replicates of three wells for each dosage, including vehicle control, were analyzed for each experiment. The experiments were conducted in triplicate. Control cells which were only treated with respective medium were used as the 100% viability value. […] Additionally, to determine the safety profile of the test compounds, therapeutic indexes (TI) (the ratio of IC50 values in HaCat to cancer cells (K562, PC3, SW620, Cack-1)) were calculated.

[2] = system: IL-6 secretion by K562 cells; assay: IL-6 release, ELISA; assay type: cell-based, human; settings: for Il-6 Concentration in K562 Cells in 72 h: ELISA, culture medium, IC50 concentration, mean ± SD; for Reduction of the level of IL-6: K562, IC50 concentration, 72 h
Text: Among many soluble factors present in the plasma and tissue microenvironment in patients with chronic lymphatic leukemia recent studies confirmed a presence of few types of interleukin (IL) including 4, 6 and 10. […] IL-6 is a member of a big family of cytokines and is predominantly excreted by T cells and macrophages to stimulate immune response during infection. Studies have shown that elevated levels of serum IL-6 is positively correlated with worse clinical outcomes in patients with different types of cancer, including leukemia. IL-6 also plays a key role in the chemoresistance of malignancies. Based on these findings we checked the effect of our new benzofuran derivatives on IL-6 secretion by K562 cells. […] On the other hand, K562 cells like other erythroid and megakaryocytic cells release IL-6 in a constitutive way.
K562 cells were treated with IC50 concentrations of the tested compounds. After 72 h, medium was collected and the IL-6 level was measured using an enzyme-linked immunosorbent assay, in accordance with the manufacturer’s protocol. The resulting data were expressed as mean ± SD from three independent experiments performed in triplicate.

[3] = system: K562 cells (human chronic myelogenous leukemia); assay: MTT cytotoxicity assay, K562; assay type: cell-based; settings: 72 h incubation, mean ± SD
Description: as §1, §2, §3

[4] = system: reactive oxygen species (H2O2) in K562 cells; assay: ROS generation (DHR 123 and DCFH-DA fluorescence); assay type: cell-based, human; settings: K562, IC50 concentration, 12 h incubation, DHR123 or DCF-DA, compared with untreated cells
Text: The resulting data were expressed as mean ± SD from three independent experiments performed in triplicate.

[5] = system: Cacki-1 cells (human clear cell renal cell carcinoma); assay: MTT cytotoxicity assay, Cacki-1; assay type: cell-based; settings: 72 h incubation
Description: as §1, §2, §3

[6] = system: caspases 3 and 7 in K562 cells; assay: Caspase-Glo 3/7 assay; assay type: cell-based, human; settings: IC50 concentration; for Effect on activity of caspases 3 and 7: 4 h incubation
Text: ROS may play a different function in different stages of cancer. ROS might enhance cell growth and proliferation through the induction of various cell signaling pathways involving nuclear factor-kappa B (NF-κB) and STAT3, hypoxia-inducible factor 1α (HIF1α), kinases, growth factors, cytokines and many other proteins. On the other hand, the accumulation of ROS can induce cell damage and promote apoptosis. It has also been confirmed that elevated ROS concentration may cause mitochondrial membrane depolarization and facilitate increased cellular pro-apoptotic molecules releasing. […] As has been previously reported, lead compound 1,1′-[3-(bromomethyl)-5,6-dimethoxy-1-benzofuran-2,7-diyl] induces apoptosis in human leukemia cells. […] We used the Annexin V-FITC test, which allows us to detect the early structural changes in cellular membrane which occur during apoptosis. […] In the control sample almost 94% of cells were neither apoptotic nor necrotic. […] As has been previously written, the MTT test assesses the toxicity of tested compounds based on the activity of mitochondrial enzymes. […] Our results are in agreement with studies conducted by Liu et al. and Su et al. They report that the benzofuran derivatives ACDB and BL-038 induce apoptosis of human chandrosarcoma cells through ROS generation, mitochondria and endoplasmic reticulum dysfunction. BL-038 increases ROS production and dysregulates mitochondria membrane potential. This causes cytochrome C to be released from mitochondria and caspase activation. Similar effects have been observed for 2-amino-3-(2-chlorophenyl)-6-(4-dimethylaminophenyl) benzofuran-4-yl acetate (ACDB). It is well documented that disruption of the mitochondrial membrane as a result of, for example, the action of free radicals causes the release of cytochrome C. In the next step, cytochrome C binds to Apaf-1 (apoptotic protease activating factor 1) and it becomes the main component of apoptosome. The binding of cytochrome C with Apaf-1 is a critical step in apoptosome formation because it is responsible for the induction of intrinsic cell death pathway triggered by caspase activation. The observed increased concentration of hydrogen peroxide in cells exposed to both tested compounds might be a key factor for the molecular mechanism of apoptosis. Hydrogen peroxide can affect the redox state of cytochrome C. In addition to the effect of hydrogen peroxide on the iron atom in the cytochrome, it can also affect the activation of caspases. In order to estimate the effect of K562 exposure on the tested compounds as well as to confirm apoptotic properties of new benzofurans, we analyzed the effect of the compounds caspases 3 and 7 activities. […] We observed significant changes of activity after 48 h exposure. […] The caspase cascade responsible for executing cell death following cytochrome C release is well documented. Available research indicates, first of all, the key role of caspases 3 and 7 as mediators in the apoptosis through the intrinsic (mitochondrial) cell death pathway. […] They have shown that caspase 9 is responsible for mitochondrial morphological changes and ROS production by cleaving and activating Bid into tBid. Following caspase 9 activation, caspase 3 […] ROS generation and is essential for the efficient execution of apoptosis, whereas effector caspase 7 is needed for apoptotic cell detachment. […]
The induction of cell apoptosis was also analyzed by luminescent assay with the Caspases-Glo3/7 assay system (Promega). […]

[7] = system: SW620 cells (human metastatic colon cancer); assay: MTT cytotoxicity assay, SW620; assay type: cell-based; settings: SW-620, 72 h incubation, mean ± SD
Description: as §1, §2, §3

[8] = system: PC3 cells (human metastatic prostate cancer); assay: MTT cytotoxicity assay, PC3; assay type: cell-based; settings: PC-3, 72 h incubation, mean ± SD
Description: as §1, §2, §3

Structure (SMILES) | IC50 [1] [µM] | Il-6 Concentration in K562 Cells in 72 h [2] | Reduction of the level of IL-6 [2] [%] | IC50 [3] [µM] | Increase of fluorescence intensity (ROS generation) [4] | IC50 [5] [µM] | Effect on activity of caspases 3 and 7 [6] | Increase of activity of caspases 3 and 7 ([6]; 12 h exposure) [%] | IC50 [7] [µM] | IC50 [8] [µM] | Increase of activity of caspases 3 and 7 ([6]; 48 h exposure) [%]
COc1cc(OC)c2c(CBr)c(C(C)=O)oc2c1 [Compound 6, 1-[3-(Bromomethyl)-4,6-Dimethoxy-1-Benzofuran-2-yl]Ethanone] | 12.4 ± 1.27 | 5.791 ± 2.048 | 50 | 3.83 ± 0.6 | two-fold increase in fluorescence intensity | > 100 | did not affect the activity of caspases 3 and 7 | 26 | > 100 | 7.02 ± 2.22 | 
CCOc1cccc2oc(C(C)=O)c(CBr)c12 [Compound 8, 1-[3-(Bromomethyl)-4-Ethoxy-1-Benzofuran-2-yl]Ethanone] | 23.6 ± 10.7 | 6.958 ± 3.623 | 40 | 2.59 ± 0.88 | statistically significant increase of fluorescence intensity | > 100 | did not affect the activity of caspases 3 and 7 | 27 | > 100 | 7.86 ± 2.62 | 13
